Test results taken from patent publication US20240299334A1, “PHARMACEUTICAL COMPOSITION OF NAPHTHALENE DERIVATIVES AS MULTI-TARGETED THERAPEUTIC AGENTS FOR THE TREATMENT OF ALZHEIMER'S DISEASE” (CENTRO DE NEUROCIENCIAS DE CUBA, CNEURO, priority 2020, published 2024).

Columns and labels:
[1] = tested on: memory loss induced by an acute administration of scopolamine (ESC); assay: Y-maze, short-term spatial memory, acute scopolamine (ESC) model; assay type: in vivo, mice
Procedure: Young male OF-1 mice (20-25 g), supplied by the National Center for the Laboratory Animals Production (CENPALAB, Cuba), were used. Before the experiment, the animals were adapted for seven days to laboratory conditions (controlled temperature 25±2° C., relative humidity 60±10% and light/dark cycles of 12 h). During this period, and during the experiment, the animals received ad libitum water and a standard diet for rodents supplied by CENPALAB. All procedures were carried out in accordance with the European Commission guidelines for the use and care of laboratory animals and approved by the Committee for the Care of Research Animals. The minimum number of animals and duration of observations required to obtain consistent data was used.
At the end of the adaptation period, the animals were randomly distributed according to their body weights in 5 experimental groups of 12 animals per group. Scopolamine hydrobromohydrate (ESC, Sigma Aldrich) was used to induce cognitive deficit, which was dissolved in physiological saline and administered intraperitoneally (ip) at a dose of 1.5 mg/kg, 30 minutes before the test (Miranda H F et al. in. J. Biomed. Sci., 2014 21 (1): 62-62). The doses of compound 3 used were 0.1, 1, 10 and 20 mg/kg of body weight. The compound was formulated using carboxymethyl cellulose (CMC). The administration scheme was designed as follows:
Group 1 (negative control) with normal cognitive function. Two administrations with an interval of 30 minutes with vehicle (5% CMC) by oral route and saline solution by i.p. route, respectively.
Group 2 (positive control) with cognitive dysfunction. Two administrations with an interval of 30 minutes, the first with vehicle (5% CMC), the second with ESC 1 mg/kg.
Group 3, 4, 5 and 6 treated with 3 (0.1, 1, 10 and 20 mg/kg). Two administrations with an interval of 30 minutes, the first with 3 at the dose corresponding to each group, the second with ESC 1 mg/kg. The behavioral evaluation was carried out 30 minutes after this second administration.
The study of short-term spatial memory was carried out through the study of novel spatial preference, using the Y-maze behavioral paradigm (40 cm long×9 cm wide×16 cm high) with extra-labyrinthine tracks around of the maze. The test consisted of two trials separated by an interval of 2 hours. In the first training test (acquisition), the mice were placed in the center of the maze and facing the end of one of the arms whose selection was random. After being positioned, they were allowed to explore the maze for 10 minutes with one of the arms closed (novel arm). At the end of this test, the mice were returned to their original cage until the second test (recovery), during which they could freely explore the three arms of the maze for 5 minutes. The total residence time (exploration) in each arm was measured and analyzed from video recordings. The entrance to the arm was defined as the entrance of the four legs of the animal in said arm. The residence time (sec) in each arm during the recovery test of the learned task was used for the statistical analysis. The maze was cleaned with 70% ethanol between runs. All mice were transported to the behavioral testing room in their home cages at least 1 day prior to testing. The experiments were carried out between 8:00 am and 12:30 pm.
All data are expressed as the mean±standard error of the mean (SEM). The Morris water maze data was analyzed in two ways. Escape latencies in the visible platform training phase were analyzed using a two-factor ANOVA (treatment×trial). For the study of long-term memory, the last escape latency value of the training phase with the visible platform (D1 V4) and the first value of the test with the hidden platform performed 24 h later (D2T1) were used. Mice with intact long-term memory capacity should quickly reach the hidden platform in the first test. A scoring system was generated with the difference D2T1−D1 V4 and with the ratio D2T1/D1V4. […]

AChE = molecular target: T1, AChE (Mus musculus, UniProt P21836); assay: AChE activity ex vivo in brain homogenates (Ellman), acute ESC model; parameters: species or system mice; settings: soluble fraction of brain homogenates, vs ESC group, 3 p<0.05, donepezil p<0.01
T1 construct: the resulting clear supernatants were used as enzyme sources; from tissue; host or cells: mouse whole brain, supernatant of the homogenate (10,000 x G)
T1 sequence (P21836 32-614): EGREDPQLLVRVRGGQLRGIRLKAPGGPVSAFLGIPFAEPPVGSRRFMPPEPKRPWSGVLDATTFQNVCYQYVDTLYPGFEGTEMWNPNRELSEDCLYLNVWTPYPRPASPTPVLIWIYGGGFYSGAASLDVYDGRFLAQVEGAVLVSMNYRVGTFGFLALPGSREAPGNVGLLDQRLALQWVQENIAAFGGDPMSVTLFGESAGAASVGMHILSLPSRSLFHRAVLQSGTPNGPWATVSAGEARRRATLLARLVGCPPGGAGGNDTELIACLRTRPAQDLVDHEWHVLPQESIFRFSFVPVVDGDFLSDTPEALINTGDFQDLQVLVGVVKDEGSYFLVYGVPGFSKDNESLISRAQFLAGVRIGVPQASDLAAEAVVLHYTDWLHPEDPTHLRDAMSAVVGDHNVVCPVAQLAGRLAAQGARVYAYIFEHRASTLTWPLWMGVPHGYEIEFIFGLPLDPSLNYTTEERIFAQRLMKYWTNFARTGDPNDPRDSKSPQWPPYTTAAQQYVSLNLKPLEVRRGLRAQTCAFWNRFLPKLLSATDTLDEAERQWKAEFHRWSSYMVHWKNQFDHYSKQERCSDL
Procedure: Briefly the procedure was as follows; at the end of the behavioral experiments, the mice were anesthetized and decapitated to quickly remove the brains, which were placed on an ice-cold plate. They were weighed and homogenized (1/10, w/v) in cold 10 mmol/L Tris-HCl buffer, pH 7.2, containing 160 mmol/L sucrose. The homogenates were centrifuged at 10,000×G for 10 minutes at 4° C., and the resulting clear supernatants were used as enzyme sources, which were aliquoted (n=10 per group) and stored at −20° C. The assay was performed in 96-well microtiter plates using Ellman's reagent (DTNB 10 mmol/L), 50 μL homogenate and 10 μL Acetylcholine iodide (AChl, 20 mmol/L) (final volume 200 μL). The absorbance of the yellow hydrolyzate of the 5-thio-2-nitrobenzoic acid dianion (molar extinction coefficient: 13 700 mol/L^−1 cm^−1), was measured at 412 nm, for 20 minutes with an interval of 1 minute. AChE activity was performed in triplicate and was expressed in nmol of hydrolyzed Achl per minute per mg of protein.
All data are expressed as the mean±standard error of the mean (SEM). The comparison of the cholinesterase activity values was carried out by means of a one-way analysis of variance, followed by the Turkey post-hoc test. Statistical analysis was performed using GraphPadPrism version 5 (GraphPad Software, Inc., San Diego, USA).

## CSC(=S)NCCNC(=O)CCC(=O)Nc1cccc2ccccc12 [compound 3, methyl(2-{[4-(1-naphthylamino)-4-oxobutanoyl]amino}ethyl)dithiocarbamate]
[1]; Y-maze, acute ESC model
  dose with the greatest effect: 1 mg/kg
[1]; compound 3 at doses higher than 1 mg/kg (10, 20 mg/kg)
  residence (exploration) time in the novel arm: a decrease in this parameter was observed
[1]; compound 3 single doses 0.1 mg/kg to 10 mg/kg, 30 min before ESC, p<0.001
  amnesia induced by ESC, preference for novel arm in Y-maze: significantly reversed
[1]; compound 3 up to the 1 mg/kg dose, p<0.01 vs ESC
  residence (exploration) time in the novel arm: gradual increase in the exploration time, significantly different from the ESC group
AChE
  AChE activity ex vivo: significantly reduced
